Experimental findings from US20230391729A1, “SUCCINATE SALTS OF N-(3-(4-(3-(DIISOBUTYLAMINO)PROPYL)PIPERAZIN-1-YL)PROPYL)-1H-BENZO[D]IMIDAZOL-2-AMINE, PREPARATION THEREOF AND USE OF THE SAME” (ALZPROTECT, priority 2020, published 2023) are described below.

The nature of data set [1]: Solubility assessment in unbuffered water and pH buffers. It counts as physicochemical. The conditions noted are these: solution in unbuffered water. The method, then: 100 μL of the appropriate buffer was added to form a slurry.
A further data set has as its system α-syn aggregation. The data set can be described thus: α-synuclein aggregation in TH(+) neurons after rotenone injury. It counts as cell-based, rat. The conditions noted are these: rotenone 10 nM 24 h. The method, then: Rat dopaminergic neurons were cultured as described by Visanji et al. in FASEB J. 2008, 22(7): 2488-2497 and Callizot et al., in Plos One 2019: https://doi.org/10.1371/journal.pone.0215277. Briefly, pregnant female rat (Wistar) of 15 days of gestation were killed using a deep anesthesia with CO2 chamber and a cervical dislocation. The midbrains obtained from 15-day-old rat embryos (Janvier, France) were dissected under a microscope. The embryonic midbrains were removed and placed in ice-cold medium of Leibovitz (L15) containing 2% of Penicillin-Streptomycin (PS) and 1% of BSA. The ventral portion of the mesencephalic flexure, a region of the developing brain rich in dopaminergic neurons, were used for the cell preparations. The midbrains were dissociated by trypsinization for 20 min at 37° C. (solution at a final concentration of 0.05% trypsin and 0.02% EDTA). The reaction was stopped by the addition of DMEM containing DNAase I grade II (0.5 mg/mL) and 10% of FCS. […] Viable cells were counted in a Neubauer cytometer using the trypan blue exclusion test. […]
The following read-outs were investigated: • neuron survival: total number of TH neurons (TH staining), • neurite network: total length of neurite network of TH positive neurons (in μm) • α-syn aggregation (area of overlapping between TH and α-syn staining in μm^2) […]

The nature of data set [2]: Variable humidity XRPD (VH-XRPD). It counts as physicochemical. The conditions noted are these: exposure to 90% RH for up to 1 hour and 30 minutes. The method, then:
VH-XRPD analysis was carried out on a Philips X'Pert Pro Multipurpose diffractometer equipped with a humidity chamber. The samples were scanned between 4 and 35.99° 20 using Cu K radiation (α1 λ=1.54060 Å; α2=1.54443 Å; β=1.39225 Å; α1: α2 ratio=0.5) running in Bragg-Brentano geometry (step size 0.008 °2θ) using 40 kV/40 mA generator settings. Measurements were performed at 50%, 60%, 70%, 80%, 90%. The sample was held at 90% for an hour and 30 minutes. Measurements were taken at 30-minute intervals.

With “N-(3-(4-(3-(diisobutylamino)propyl)piperazin-1-yl)propyl)-1H-benzo[d]imidazol-2-amine sesqui-succinate salt [sesqui-succinate salt Form 1]”, the pH measurement in data set [1] was determined as 5.28. The α-syn aggregation entry in the data set on α-syn aggregation (100 nM co-administered) is recorded as “prevented”; with α-syn aggregation (pre-incubated or applied directly with rotenone, 10 to 100 nM) it was “significantly reduced”. Moreover, the VH-XRPD crystalline form entry in data set [2] is reported as “no change to crystallinity or form”.
